Measurements published in US20250250264A1, “KIF18A INHIBITOR AND USE THEREOF” (Wuhan Humanwell Innovative Drug Research and Development …, priority 2022, published 2025).
Like-named read-outs stand apart in the source and are kept apart here.

Legend:
[1] = biological target: recombinant protein KIF18A (kinesin domain: aa 1-467) (Homo sapiens (Human), UniProt Q8NI77); experiment: Assay on inhibition of KIF18A enzymatic activity (ADP-Glo); assay type: biochemical; details: KIF18A 80 nM, ATP 80 μM, 3 h at room temperature, ADP-Glo luminescence; read-out: IC50 (μM), inhibitory effects of compounds on KIF18A enzymatic activity
recombinant protein KIF18A (kinesin domain: aa 1-467), sequence (Q8NI77 1-467): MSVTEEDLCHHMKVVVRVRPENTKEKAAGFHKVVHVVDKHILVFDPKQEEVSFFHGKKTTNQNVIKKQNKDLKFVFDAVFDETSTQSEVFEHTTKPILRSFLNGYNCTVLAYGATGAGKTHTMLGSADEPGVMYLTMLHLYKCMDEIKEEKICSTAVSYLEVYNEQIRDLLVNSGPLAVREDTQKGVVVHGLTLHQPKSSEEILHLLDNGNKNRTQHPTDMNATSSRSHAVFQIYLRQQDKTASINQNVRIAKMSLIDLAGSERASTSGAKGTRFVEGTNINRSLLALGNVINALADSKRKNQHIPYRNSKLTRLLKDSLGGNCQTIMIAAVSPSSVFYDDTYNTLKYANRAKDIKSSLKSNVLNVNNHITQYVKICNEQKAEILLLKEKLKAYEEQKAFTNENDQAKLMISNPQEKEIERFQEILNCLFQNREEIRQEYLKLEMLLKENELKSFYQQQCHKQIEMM
recombinant protein KIF18A (kinesin domain: aa 1-467), sequence (P02550 whole entry partner, the tested form may be a part): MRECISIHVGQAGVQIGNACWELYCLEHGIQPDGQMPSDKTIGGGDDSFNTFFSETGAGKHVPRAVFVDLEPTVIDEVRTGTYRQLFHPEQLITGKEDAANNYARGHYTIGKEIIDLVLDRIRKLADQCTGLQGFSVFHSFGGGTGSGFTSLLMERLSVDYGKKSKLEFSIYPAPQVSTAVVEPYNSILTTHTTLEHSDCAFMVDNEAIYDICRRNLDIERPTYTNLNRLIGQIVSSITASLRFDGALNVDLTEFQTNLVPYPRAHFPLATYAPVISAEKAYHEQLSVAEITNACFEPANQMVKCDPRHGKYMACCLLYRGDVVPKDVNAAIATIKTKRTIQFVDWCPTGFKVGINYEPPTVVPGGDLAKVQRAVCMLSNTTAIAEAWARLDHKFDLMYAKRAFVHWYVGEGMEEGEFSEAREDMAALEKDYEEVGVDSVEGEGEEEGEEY
recombinant protein KIF18A (kinesin domain: aa 1-467), sequence (P02554 whole entry partner, the tested form may be a part): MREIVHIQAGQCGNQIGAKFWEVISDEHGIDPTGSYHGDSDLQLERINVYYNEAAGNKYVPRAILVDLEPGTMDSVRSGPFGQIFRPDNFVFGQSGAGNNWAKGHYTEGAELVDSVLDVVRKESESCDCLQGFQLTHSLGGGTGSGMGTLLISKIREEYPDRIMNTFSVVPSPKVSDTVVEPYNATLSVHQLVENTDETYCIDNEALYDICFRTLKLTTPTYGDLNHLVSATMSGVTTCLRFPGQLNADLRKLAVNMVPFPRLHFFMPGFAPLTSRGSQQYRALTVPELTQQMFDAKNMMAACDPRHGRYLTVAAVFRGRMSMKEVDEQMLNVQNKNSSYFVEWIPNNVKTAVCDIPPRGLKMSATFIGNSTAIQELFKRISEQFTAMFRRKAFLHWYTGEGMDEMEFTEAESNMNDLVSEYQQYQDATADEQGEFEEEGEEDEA
Source text: The recombinant protein KIF18A (kinesin domain: aa 1-467) used in this assay was expressed by the Bac-to-Bac baculovirus expression system from Invitrogen, and the resulting protein was purified for use in this assay (Seki, M. et al. 2003 Nucleic Acids Res.). Quantitative detection of KIF18A enzymatic activity was completed using an ADP-Glo™ kinase assay kit (Promega Inc). Related procedures strictly followed the product instructions, which are briefly described as follows:
The reaction system consisted of a test compound, the recombinant protein KIF18A (aa 1-467), ATP (Promega Inc), and an assay buffer. The test compound was prepared into a 0.5 mM stock solution using DMSO (Sigma Inc) and then serially diluted in DMSO. The assay buffer consisted of an aqueous solution of 15 mM Tris, 10 mM MgCl2 (Sigma Inc), 0.01% Pluronic F-68 (Life Technologies Inc), 1 μM paclitaxel (Cytoskeleton Inc), 30 μg/mL porcine tubulin (Cytoskeleton Inc), and 2% DMSO. The KIF18A protein (final concentration: 80 nM) and the compound at different concentrations (1 μL) were added to the prepared assay buffer (50 μL), and the mixture was incubated at room temperature for 15 min. Then, ATP (final concentration: 80 μM) was added to the reaction mixture, and the resulting mixture was incubated at room temperature for 3 h. After the reaction was completed, 5 μL of the ADP-Glo™ reagent and 2.5 μL of the reaction mixture were added to a 384-well plate (Grenier Inc). The resulting mixture was mixed homogeneously, then sealed by an aluminum foil sealing film, and incubated at room temperature in the dark for 40 min. Finally, 10 μL of the […] was added to each reaction well, and the mixture was incubated at room temperature in the dark for 40 min. After all reactions were completed, the luminescence values of the wells were read on a microplate reader (Molecular Device_SpectraMax Id5), and the inhibition ratios were calculated. The calculation formula for the inhibition rates was as follows: inhibition rate=(1−(compound group−blank group)/(negative control group−blank group))×100%. Then, based on the inhibition rates at different compound concentrations, the IC50 value of the test compound was calculated using the GraphPad Prism 8 software.

NIH:OVCAR-3 cells = experiment: Assay on inhibition of OVCAR3 tumor cell proliferation (CellTiter-Glo); assay type: cell-based; details: 3 days of drug treatment, read-out: IC50 (μM), inhibitory effects of compounds on tumor cell proliferation
Method: NIH:OVCAR-3 cells (ATCC, Cat No. HTB-161, purchased from Co-Bier) were seeded into a T75 culture flask and cultured in an RPMI 1640 medium containing 20% FBS for 3 days in preparation for subsequent culturing and seeding into a 96-well plate for the cell proliferation assay.
The OVCAR3 cells were seeded at a density of 3000 cells/100 μL/well into the 96-well cell plate, and then the plate was incubated in an incubator (37° C., 5% CO2) for 18 h. On the second day, drug treatment was started. Serially diluted test compound solutions (each drug starting at a concentration of 10 μM, diluted in DMSO, with a dilution ratio of 1:3, and nine gradient points for each drug) or DMSO (negative control) was added to the medium in the plate at 100 μL/well, and a blank group was set up with only medium, but no seeded cell strains. After the drug addition, the plate was incubated in the incubator for another 3 days (37° C., 5% CO2). On the fourth day, plate detection was performed. To each well, 100 μL of CellTiter-Glo reagent (Promega G9243) was added. The plate was shaken for 5 min and then left to stand at room temperature for 5 min. The chemical luminescence signal value of each well was determined using a microplate reader (PerkinElmer EnVision®2104). Cell proliferation inhibition rate=(1−(compound group−blank group)/(DMSO group−blank group))×100%. Then, the IC50 value of each compound was calculated using the GraphPad Prism 8 software.

| SMILES | IC50 [1] [µM] | IC50 (NIH:OVCAR-3 cells; Homo sapiens, OVCAR-3, 72 h) [µM] | IC50 (NIH:OVCAR-3 cells) [µM] |
| --- | --- | --- | --- |
| Cc1cc(-c2nnc(-c3ccc(NS(=O)(=O)CCO)cc3N3CCC4(CC3)CC4)o2)nc(N2CCC(F)(F)CC2)n1 [Example I-2, N-(4-(5-(2-(4,4-Difluoropiperidin-1-yl)-6-methylpyrimidin-4-yl)-1,3,4-oxadiazol-2-yl)-3-(6-azaspiro[2.5]octan-6-yl)phenyl)-2-hydroxyethane-1-sulfonamide] | 0.002 | 0.08 |  |
| Cc1cc(-c2nnc(-c3ccc(NS(=O)(=O)CCO)cc3N3CCC4(CC3)CC4)o2)nc(N2CC(F)(F)C2)n1 [Example I-3, N-(4-(5-(2-(3,3-Difluoroazetidin-1-yl)-6-methylpyrimidin-4-yl)-1,3,4-oxadiazol-2-yl)-3-(6-azaspiro[2.5]octan-6-yl)phenyl)-2-hydroxyethane-1-sulfonamide] | 0.011 | 0.051 |  |
| Cc1cc(-c2nnc(-c3ccc(NS(=O)(=O)CCO)cc3N3CCC4(CC3)CC4)o2)nc(N2CCCC(F)(F)C2)n1 [Example I-7, N-(4-(5-(2-(3,3-Difluoropiperidin-1-yl)-6-methylpyrimidin-4-yl)-1,3,4-oxadiazol-2-yl)-3-(6-azaspiro[2.5]octan-6-yl)phenyl)-2-hydroxyethane-1-sulfonamide] | 0.001 | 0.073 |  |
| Cc1cc(-c2nnc(-c3ccc(NS(=O)(=O)CCO)cc3N3CCC4(CC3)CC4)o2)nc(N2CCC(F)CC2)n1 [Example I-8, N-(4-(5-(2-(4-fluoropiperidin-1-yl)-6-methylpyrimidin-4-yl)-1,3,4-oxadiazol-2-yl)-3-(6-azaspiro [2.5]octan-6-yl)phenyl)-2-hydroxyethanesulfonamide] | 0.002 | 0.035 |  |
| Cc1cc(-c2nnc(-c3ccc(NS(=O)(=O)CCO)cc3N3CCC4(CC3)CC4)o2)nc(N2CCC3(CC3)C2)n1 [Example I-17, 2-Hydroxy-N-(4-(5-(6-methyl-2-(5-azaspiro[2.4]heptan-5-yl)pyrimidin-4-yl)-1,3,4-oxadiazol-2-yl)-3-(6-azaspiro[2.5]octan-6-yl)phenyl)ethane-1-sulfonamide] | 0.01 | 0.56 |  |
| Cc1cc(-c2nnc(-c3ccc(NS(=O)(=O)CCO)cc3N3CCC4(CC3)CC4)o2)nc(OCCC(F)(F)F)n1 [Example I-27, 2-Hydroxy-N-(4-(5-(6-methyl-2-(3,3,3-trifluoropropoxy)pyrimidin-4-yl)-1,3,4-oxadiazol-2-yl)-3-(6-azaspiro[2.5]octan-6-yl)phenyl)ethane-1-sulfonamide] | 0.001 | 0.079 |  |
| Cc1cc(-c2nnc(-c3ccc(NS(=O)(=O)[C@H](C)CO)cc3N3CCC4(CC3)CC4)o2)nc(N2CCC(F)(F)CC2)n1 [Example I-40, (R)—N-(4-(5-(2-(4,4-Difluoropiperidin-1-yl)-6-methylpyrimidin-4-yl)-1,3,4-oxadiazol-2-yl)-3-(6-azaspiro[2.5]octan-6-yl)phenyl)-1-hydroxypropane-2-sulfonamide] | 0.011 | 0.076 |  |
| Cc1cc(-c2nnc(-c3ccc(NS(=O)(=O)CCO)cc3N3CCC4(CC3)CC4)o2)cc(N2CCC(F)(F)CC2)n1 [Example I-52, N-(4-(5-(2-(4,4-Difluoropiperidin-1-yl)-6-methylpyridin-4-yl)-1,3,4-oxadiazol-2-yl)-3-(6-azaspiro[2.5]octan-6-yl)phenyl)-2-hydroxyethane-1-sulfonamide] | 0.001 |  | 0.045 |
| Cc1cc(-c2nnc(-c3ccc(NS(=O)(=O)CCO)cc3N3CCC4(CC3)CC4)o2)nc(N2CCC(C(F)(F)F)C2)n1 (centres unmarked) [Example I-98, N-(4-(5-(6-methyl-2-(3-(trifluoromethyl)pyrrolidin-1-yl)pyrimidin-4-yl)-1,3,4-oxadiazol-2-yl)-3-(6-azaspiro [2.5]octan-6-yl)phenyl)-2-hydroxyethane-sulfonamide] | 0.018 |  |  |
| Cc1cc(-c2nnc(-c3ccc(NS(=O)(=O)CCO)cc3N3CCC4(CC3)CC4)s2)nc(OCCC(F)(F)F)n1 [Example I-99, N-(4-(5-(6-Methyl-2-(3,3,3-trifluoropropoxy)pyrimidin-4-yl)-1,3,4-thiadiazol-2-yl)-3-(6-azaspiro[2.5]octan-6-yl)phenyl)-2-hydroxyethane-1-sulfonamide] |  | 0.205 |  |
| Cc1cc(-c2nnc(-c3ccc(NS(=O)(=O)CCO)cc3N3CCC4(CC3)CC4)o2)nc(N2CCC(C(F)(F)F)C2)c1 (centres unmarked) [Example I-104, N-(4-(5-(4-Methyl-6-(3-(trifluoromethyl)pyrrolidin-1-yl)pyridin-2-yl)-1,3,4-oxadiazol-2-yl)-3-(6-azaspiro[2.5]octan-6-yl)phenyl)-2-hydroxyethane-1-sulfonamide] | 0.013 |  |  |
| Cc1cc(-c2cnn(-c3ccc(NS(=O)(=O)CCO)cc3N3CCC(C)CC3)c2)nc(N2CCC(F)(F)CC2)n1 [Example I-125, N-(4-(4-(2-(4,4-Difluoropiperidin-1-yl)-6-methylpyrimidin-4-yl)-1H-pyrazol-1-yl)-3-(4-methylpiperidin-1-yl)phenyl)-2-hydroxyethane-1-sulfonamide] | 0.005 |  |  |

More lines, now with the values ahead:

| IC50 [1] [µM] | IC50 (NIH:OVCAR-3 cells; Homo sapiens, OVCAR-3, 72 h) [µM] | IC50 (NIH:OVCAR-3 cells) [µM] | SMILES |
| --- | --- | --- | --- |
| 0.033 | 0.045 |  | Cc1cc(-c2nnc(-c3ccc(NS(=O)(=O)CCO)cc3N3CCC4(CC3)CC4)o2)nc(N2CCO[C@H](C)C2)c1 [Example I-1, (R)-2-Hydroxy-N-(4-(5-(4-methyl-6-(2-methylmorpholino)pyridin-2-yl)-1,3,4-oxadiazol-2-yl)-3-(6-azaspiro[2.5]octan-6-yl)phenyl)ethane-1-sulfonamide] |
| 0.007 | 0.186 |  | Cc1cc(-c2nnc(-c3ccc(NS(=O)(=O)CCO)cc3N3CCC4(CC3)CC4)o2)nc(N2CCC(F)(F)C2)n1 [Example I-5, N-(4-(5-(2-(3,3-Difluoropyrrolidin-1-yl)-6-methylpyrimidin-4-yl)-1,3,4-oxadiazol-2-yl)-3-(6-azaspiro[2.5]octan-6-yl)phenyl)-2-hydroxyethane-1-sulfonamide] |
|  | 0.214 |  | Cc1cc(-c2nnc(-c3ccc(NS(=O)(=O)CCO)cc3N3CCC4(CC3)CC4)o2)c(F)c(N2CCC(F)(F)CC2)n1 [Example I-53] |
| 0.002 | 0.12 |  | Cc1cc(-c2nnc(-c3ccc(NS(=O)(=O)CCO)cc3N3CCC4(CC3)CC4)s2)nc(N2CCC(F)(F)CC2)n1 [Example I-77, N-(4-(5-(2-(4,4-Difluoropiperidin-1-yl)-6-methylpyrimidin-4-yl)-1,3,4-thiadiazol-2-yl)-3-(6-azaspiro[2.5]octan-6-yl)phenyl)-2-hydroxyethane-1-sulfonamide] |
|  | 0.393 |  | Cc1cc(-n2cc(-c3ccc(NS(=O)(=O)CCO)cc3N3CCC4(CC3)CC4)cn2)nc(N2CCC(F)(F)CC2)n1 [Example I-81, N-(4-(1-(2-(4,4-Difluoropiperidin-1-yl)-6-methylpyrimidin-4-yl)-1H-pyrazol-4-yl)-3-(6-azaspiro[2.5]octan-6-yl)phenyl)-2-hydroxyethane-1-sulfonamide] |
| 0.012 |  |  | Cc1cc(-c2nnc(-c3ccc(NS(=O)(=O)CCO)cc3N3CCC4(CC3)CC4)o2)nc(N2CCCC(C(F)(F)F)C2)c1 (centres unmarked) [Example I-103, N-(4-(5-(4-Methyl-6-(3-(trifluoromethyl)piperidin-1-yl)pyridin-2-yl)-1,3,4-oxadiazol-2-yl)-3-(6-azaspiro[2.5]octan-6-yl)phenyl)-2-hydroxyethane-1-sulfonamide] |
